Data on 71 compounds can be found in publication PMC7802075 (ACS Infectious Diseases, 2020).

Read-outs that look alike come from different tables or passages of the source. Where a SMILES comes first, the peptide text is derived from it.

The assay deals with T1, LmjIPCS (inositol phosphorylceramide synthase from L. major) (Leishmania major, UniProt E9AFX2).
T1 sequence (E9AFX2 1-338): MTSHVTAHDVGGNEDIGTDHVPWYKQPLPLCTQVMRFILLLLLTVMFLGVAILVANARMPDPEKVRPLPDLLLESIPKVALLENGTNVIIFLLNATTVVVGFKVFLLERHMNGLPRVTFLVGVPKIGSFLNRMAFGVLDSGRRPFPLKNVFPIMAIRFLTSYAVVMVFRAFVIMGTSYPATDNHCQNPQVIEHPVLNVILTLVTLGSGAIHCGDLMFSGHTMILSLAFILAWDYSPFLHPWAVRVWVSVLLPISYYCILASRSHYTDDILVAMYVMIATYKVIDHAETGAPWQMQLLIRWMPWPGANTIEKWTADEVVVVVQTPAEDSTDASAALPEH
The assay can be described thus: biochemical. The assay is classed as biochemical. Set-up: inhibition: dose or concentration left out as unconfirmed. Conditions: for inhibition: read-out: inhibition LmjIPCS; for inhibition at 20000 µM: read-out: 20mM inhibition LmjIPCS.

Where [1] appears, read: NINDS set screen, single concentration printed as 20mM.
Setting [2] is: screening of NINDS set, sheet Screen 1.

Regarding `C=C1CC[C@H](O)C/C1=C/C=C1\CCC[C@]2(C)[C@@H]([C@H](C)/C=C/[C@H](C)C(C)C)CC[C@@H]12` [ERGOCALCIFEROL], the inhibition (usually the drop in the measured response relative to a control, in per cent) was -1.77%.
As to `CCN1C[C@]2(C)CC[C@H](OC)[C@@]34C1[C@]1(OCO[C@@]15C[C@H](OC)[C@H]1C[C@]3(O)[C@@H]5[C@H]1OC)[C@@H](OC(C)=O)[C@H]24` [DELTALINE], the inhibition at 20000 µM was found to be 22%.
On the same count and under the same terms, the result for `C[C@@H](CO)NC(=O)[C@@H]1C=C2c3cccc4[nH]cc(c34)C[C@H]2N(C)C1` [ERGONOVINE] reads 6.33%.
For the compound `COc1cc2nc(N(C)CCCNC(=O)C3CCCO3)nc(N)c2cc1OC` (centres unmarked) [ALFLUZOCIN], the “20mM inhibition LmjIPCS” value was 8%.
As for `CN1C(C(=O)Nc2ccccn2)=C(O)c2sccc2S1(=O)=O` [TENOXICAM], the inhibition stood at 7.55%.
On the same count and under the same terms, next, `CC1(C)S[C@@H]2[C@H](NC(=O)Cc3ccccc3)C(=O)N2[C@H]1C(=O)O` [BENZYL PENICILLIN]: 21%.
Take `C#CCCCCCCCCCCCC(O)CC(O)CO` (centres unmarked) [AVOCADYNE]: the “20mM inhibition LmjIPCS” value under setting [1] is given as 65%.
Regarding `CC(C)C(=O)Nc1ccc([N+](=O)[O-])c(C(F)(F)F)c1` [FLUTAMIDE], the inhibition at 20000 µM was -1.8%.
On to `COc1cc2c(cc1O)CCNC2C` (centres unmarked) [SALSOLINE], for which the “20mM inhibition LmjIPCS” value amounted to 12%.
For the compound `CC[C@@H](C(=O)[C@@H](C)[C@@H](O)[C@H](C)CCc1ccc(C)c(O)c1C(=O)[O-])[C@H]1O[C@](CC)([C@H]2CC[C@](O)(CC)[C@H](C)O2)C[C@@H]1C.[Na+]` [LASALOCID SODIUM], the “20mM inhibition LmjIPCS” value under setting [1] turned out to be 41%.
Turning to `CC(C)(O)CC[C@@H](O)[C@](C)(O)[C@H]1CC[C@@]2(O)C3=CC(=O)[C@@H]4C[C@@H](O)[C@@H](O)C[C@]4(C)[C@H]3CC[C@]12C` [CRUSTECDYSONE], the inhibition (NINDS set screen) is -3.51%.
On to `NCCCCCCNS(=O)(=O)c1cccc2c(Cl)cccc12`, for which the “20mM inhibition LmjIPCS” value is 59%.
Consider `Cc1cc(O)cc(C)c1Cl` [CHLOROXYLENOL], for which the “20mM inhibition LmjIPCS” value came out at 53%.
Still for that read-out and setting: the result for `CCOC(=O)C1=C(O)C(=O)N(Cc2ccccc2)C1` reads -1.71%.
For the compound `Nc1ccc(S(=O)(=O)c2ccc(N)cc2)cc1` [DAPSONE], the inhibition worked out at 1.23%.
Turning to `O=C1c2ccccc2-c2cccc3cccc1c23` [BENZANTHRONE], the inhibition at 20000 µM came out at 16%.
The same measure, in the same setting: the result for `O=c1c(O)c(-c2ccc(O)c(O)c2)oc2cc(O)cc(O)c12` [QUERCETIN] reads 3.45%.
With `NC(=O)c1ccccc1O` [SALICYLAMIDE], the inhibition (NINDS set screen) was 0.588%.
Turning to `CC[C@@H](C)C(=O)O[C@H]1[C@H](O)[C@H]2[C@@H](CN3C[C@@H](C)CC[C@H]3[C@@]2(C)O)[C@@H]2C[C@]34O[C@]5(O)[C@@H](OC(=O)[C@](C)(O)[C@@H](C)O)CC[C@@]3(C)[C@@H]5[C@@H](OC(C)=O)[C@@H](OC(C)=O)[C@H]4[C@@]21O` (stereo in doubt) [PROT[…]], the inhibition at 20000 µM is 14%.
Turning to BACITRACIN, under setting [1], the “20mM inhibition LmjIPCS” value turned out to be 44%.
`CCN(CCCCOC(=O)c1ccc(OC)c(OC)c1)C(C)Cc1ccc(OC)cc1` (centres unmarked) [MEBEVERINE]: the “20mM inhibition LmjIPCS” value turned out to be 54%.
Regarding `NC(=O)c1cnccn1` [PYRAZINAMIDE], the inhibition (NINDS set screen) was -17%.
On to `CSc1ccc2c(c1)C(N1CCN(C)CC1)Cc1ccccc1S2` (centres unmarked) [METHIOTHEPIN], for which the “20mM inhibition LmjIPCS” value under setting [1] amounted to 55%.
As to `Cc1c(NC(=O)c2cccnc2)c(=O)n(-c2ccccc2)n1C` [NIFENAZONE], the inhibition came out at 11%.
`O=C(/C=C/c1ccc(O)c(O)c1)OCCc1ccccc1` [PHENETHYL CAFFEATE (CAPE)]: the “20mM inhibition LmjIPCS” value turned out to be 39%.
Still for that read-out and setting: the result for `CCCCC1C(=O)N(c2ccccc2)N(c2ccc(O)cc2)C1=O` (centres unmarked) [OXYPHENBUTAZONE] reads 45%.
Consider `CN1CCN(CC/C=C2/c3ccccc3Sc3ccc(S(=O)(=O)N(C)C)cc32)CC1` [THIOTHIXENE], for which the inhibition (NINDS set screen) is -24%.
On to `CC(=O)Oc1ccc2c(c1)CC[C@@H]1[C@@H]2CC[C@]2(C)[C@@H](OC(C)=O)CC[C@@H]12` [ESTRADIOL DIACETATE], for which, for the setting “single concentration 20mM as printed, screening of NINDS set, sheet Screen 1”, the “20mM inhibition LmjIPCS” value was 1.59%.
As for `Nc1ccncc1` [AMINOPYRIDINE], the “20mM inhibition LmjIPCS” value is given as -4.7%.
`CC(C)[C@H](N)C(=O)N[C@@H](Cc1c[nH]c2ccccc12)C(=O)O` [VALYLTRYPTOPHAN] (H-Val-Trp-OH): the inhibition under setting [2] is 6%.
For `NCC[C@H](O)C(=O)N[C@@H]1C[C@H](N)[C@@H](O[C@H]2O[C@H](CN)[C@@H](O)[C@H](O)[C@H]2O)[C@H](O)[C@H]1O[C@H]1O[C@H](CO)[C@@H](O)[C@H](N)[C@H]1O` [AMIKACIN], the inhibition (NINDS set screen) was determined as 21%.
In the case of `N#Cc1ccc2c(c1)N(CCCN1CCC(O)CC1)c1ccccc1S2` [PERICIAZINE], under setting [1], the “20mM inhibition LmjIPCS” value was determined as 52%.
As to `O=C(O)c1cc(-c2ccc(F)cc2F)ccc1O` [DIFLUNISAL], the inhibition at 20000 µM was -4.4%.
On to `CN1[C@@H](CC(=O)c2ccccc2)CCC[C@H]1C[C@H](O)c1ccccc1` [LOBELINE], for which the “20mM inhibition LmjIPCS” value was 38%.
With `CC(=O)Oc1ccc(C(c2ccc(OC(C)=O)cc2)c2ccccn2)cc1` [BISACODYL], the “20mM inhibition LmjIPCS” value was found to be 48%.
Still for that read-out and setting: the result for `CC1=C(O)C(=O)C=C2C1=CC=C1[C@@]2(C)CC[C@@]2(C)[C@@H]3C[C@](C)(C(=O)O)CC[C@]3(C)CC[C@]12C` [CELASTROL] reads 54%.
Take `Cc1cc(C(C)(C)C)c(O)c(C(C)(C)C)c1` [2,6-DI-t-BUTYL-4-METHYLPHENOL]: under setting [1], the “20mM inhibition LmjIPCS” value was 36%.
In the case of `CC(=O)OCC[N+](C)(C)C` [ACETYLCHOLINE], the “20mM inhibition LmjIPCS” value was determined as 58%.
Take `Nc1c2ccccc2nc2ccccc12` [AMINACRINE]: the inhibition at 20000 µM is -11%.
`NC(=O)c1cc([N+](=O)[O-])cc([N+](=O)[O-])c1` [NITROMIDE]: the “20mM inhibition LmjIPCS” value is 9%.
On to `C/C=C1\[C@H]2C=C(C)C[C@]1(N)c1ccc(=O)[nH]c1C2` [HUPERZINE A], for which the inhibition at 20000 µM came to 24%.
Still for that read-out and setting: next, `C=C(C)[C@@H]1CC=C(C(=O)O)CC1` [PERILLIC ACID (-)]: 12%.
`CCCCC(CC)CNC(=N)NC(=N)NCCCCCCNC(=N)NC(=N)NCC(CC)CCCC` (centres unmarked) [ALEXIDINE]: under setting [1], the “20mM inhibition LmjIPCS” value came to 47%.
Regarding `CC[C@@H]1C(=O)OC[C@@H]1Cc1cncn1C` [PILOCARPINE], under “NINDS set screen”, the inhibition was -4.6%.
Turning to `COC1=C[C@@H]2[C@@H]3Cc4ccc(OC)c(O)c4[C@]2(CCN3C)CC1=O` [SINOMENINE], the inhibition at 20000 µM is 8%.
On the same count and under the same terms, next, `Nc1nc(/C(=C/CC(=O)O)C(=O)N[C@@H]2C(=O)N3C(C(=O)O)=CCS[C@H]23)cs1` [CEFTIBUTEN]: 18%.
`O=[N+]([O-])c1cc(O)c(O)c([N+](=O)[O-])c1` [3,5-DINITROCATECHOL]: the “20mM inhibition LmjIPCS” value came to 8%.
Still for that read-out and setting: the result for `Cc1onc(-c2ccccc2Cl)c1C(=O)N[C@@H]1C(=O)N2[C@@H]1SC(C)(C)[C@@H]2C(=O)O` [CLOXACILLIN] reads 45%.
Same read-out and setting: the result for `NCCCCCC(=O)O` [6-AMINOCAPROIC ACID] reads 43%.
`CCOc1ccc2ccccc2c1C(=O)N[C@@H]1C(=O)N2[C@@H]1SC(C)(C)[C@@H]2C(=O)O` [NAFCILLIN]: the inhibition at 20000 µM worked out at 4.73%.
On the same count and under the same terms, the result for `c1ccc2c(c1)[nH]c1cnccc12` [NORHARMAN] reads 17%.
For the compound `N.N.[Cl][Pt][Cl]` [CISPLATIN], the “20mM inhibition LmjIPCS” value (NINDS set screen, compound at 20mM (so in the source)) came out at 21%.
Regarding `O=C1C=C2C(=CCOC2O)O1` (centres unmarked) [PATULIN], the inhibition at 20000 µM is 0.294%.
Still for that read-out and setting: the result for `OC(CCN1CCCC1)(c1ccccc1)C1CCCCC1` (centres unmarked) [PROCYCLIDINE] reads 22%.
Consider `CN1CCOC(c2ccccc2)c2ccccc2C1` (centres unmarked) [NEFOPAM], for which the “20mM inhibition LmjIPCS” value is recorded as 68%.
Turning to `Cc1c(C(N)=O)cc([N+](=O)[O-])cc1[N+](=O)[O-]` [DINITOLMIDE], the inhibition was found to be 5%.
Still for that read-out and setting: next, `Nc1ncnc2c1ncn2[C@@H]1O[C@H](CO)[C@@H](O)[C@@H]1O` [VIDARABINE]: 10%.
As to `CC1=NCCc2c1[nH]c1cc(O)ccc21` [HARMALOL], under “NINDS set screen”, the inhibition was 17%.
For the compound `[O-][n+]1ccccc1S` [PYRITHIONE ZINC], the inhibition at 20000 µM was 10%.
As for `Nc1c2c(nc3ccccc13)CCCC2` [9-AMINO-1,2,3,4-TETRAHYDROACRIDINE], the “20mM inhibition LmjIPCS” value amounted to 13%.
As for `CC(C(=O)O)c1ccc(N2Cc3ccccc3C2=O)cc1` (centres unmarked) [INDOPROFEN], the inhibition at 20000 µM was -1.7%.
For `CO[C@@]1(NC(=O)Cc2cccs2)C(=O)N2C(C(=O)O)=C(COC(N)=O)CS[C@@H]21` [CEFOXITIN], the inhibition at 20000 µM is 3.72%.
Take `NC(=O)CN1CCCC1=O`: the inhibition was 6%.
In the case of `CC(C)[N+]1(C)[C@@H]2CC[C@H]1C[C@@H](OC(=O)C(CO)c1ccccc1)C2` (some centres unmarked) [IPRATROPIUM BROMIDE], the inhibition at 20000 µM was -7%.
On the same count and under the same terms, next, `C1CNCCN1` [PIPERAZINE]: 5.42%; `CCC1(c2ccccc2)C(=O)NCNC1=O` [PRIMIDONE]: -1.2%.
On to `Cc1onc(-c2ccccc2)c1-c1ccc(S(N)(=O)=O)cc1` [VALDECOXIB], for which the inhibition under setting [2] amounted to 3.24%.
For the compound CAPREOMYCIN, the “20mM inhibition LmjIPCS” value under setting [1] turned out to be 52%.
`COC(=O)Nc1nc2ccc(C(=O)c3ccccc3)cc2[nH]1` [MEBENDAZOLE]: the inhibition was 18%.
The same measure, in the same setting: the result for `COc1ccc2c(c1OC)C(=O)O[C@@H]2[C@H]1c2c(cc3c(c2OC)OCO3)CCN1C` [NOSCAPINE] reads 19%.
For `Clc1cccc(Cl)c1N=C1NCCN1` [CLONIDINE], the “20mM inhibition LmjIPCS” value amounted to 43%.
